Drawing on PubChem BioAssay (NCI), this text covers TGI and GI50 for 13 compounds.

Some test systems named below: DMS 273 small cell lung; OVCAR-3 ovarian; KM20L2 colon; HCT-116 colon; SN12C renal; A498 renal; SK-MEL-5 melanoma; M14 melanoma; CCRF-CEM leukemia; T-47D breast; DU-145 prostate.
Experiment in all cases: NCI-60 cell line screen, 48 h

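Cultured in 96-well plates, cells were exposed to test compound for 48 hours across five concentrations. GI50 is the concentration that inhibits growth by half. The concentration for full growth arrest is given as TGI.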 Where only a bound is given, the exact number is not on record here.

With `CCS(=O)(=O)Nc1ccc(Nc2c3ccccc3nc3ccccc23)c(OC)c1`, the TGI in the test on DMS 273 small cell lung amounted to 1.85 µM; with OVCAR-3 ovarian, 6.05 µM; in the test on KM20L2 colon, 6.44 µM; in the test on HCT-116 colon, 6.94 µM; in the test on SN12C renal, 3.86 µM; with A498 renal, 2.28 µM. The TGI in the test with SK-MEL-5 melanoma was 12.9 µM.
In the case of `CCOC(=O)c1nc2ccc(Cl)cc2c2c1Cc1ccccc1-2`, the TGI with DMS 273 small cell lung, with OVCAR-3 ovarian, in the test on KM20L2 colon, in the test with HCT-116 colon, in the test with SN12C renal and in the test with M14 melanoma was over 100 µM in each case. In the test with SK-MEL-5 melanoma, this compound registered a TGI of over 100 µM.
As for `COc1cc(C2C(C(=O)O)=C(CO)Oc3cc4c(cc32)OCO4)cc(OC)c1O` (configuration not stated), the TGI with DMS 273 small cell lung, in the test with OVCAR-3 ovarian, with KM20L2 colon, in the test with HCT-116 colon, in the test with SN12C renal and with M14 melanoma was over 100 µM each time. In addition, the TGI with CCRF-CEM leukemia and in the test with SK-MEL-5 melanoma was over 100 µM in each case.
With `ONc1ncnc2nc[nH]c12`, the TGI with DMS 273 small cell lung, with OVCAR-3 ovarian, in the test on KM20L2 colon, in the test with HCT-116 colon, in the test with M14 melanoma and in the test with CCRF-CEM leukemia was over 100 µM each time. Also, the TGI in the test on SK-MEL-5 melanoma is over 100 µM.
For `CCCc1[nH]c(SCCCCCCCCSc2nc(-c3ccc(F)cc3)c(CCC)[nH]2)nc1-c1ccc(F)cc1`, the TGI in the test with DMS 273 small cell lung was over 100 µM; with OVCAR-3 ovarian, 12.9 µM; in the test on KM20L2 colon, over 100 µM; with HCT-116 colon it was over 100 µM; with SN12C renal it was over 100 µM; in the test with M14 melanoma, over 100 µM. The results for the TGI in the test on CCRF-CEM leukemia and in the test with SK-MEL-5 melanoma were over 100 µM and 67.1 µM, respectively.
As for `COc1ccc2nc(-c3ccc(-c4noc(-c5cc(OC)c(OC)c(OC)c5)n4)cc3)[nH]c2c1`, the GI50 in the test with OVCAR-3 ovarian is 4.25 µM; in the test with T-47D breast, 14.7 µM; with HCT-116 colon it was 1.9 µM; with DU-145 prostate, 9.48 µM; in the test on SN12C renal, 13.2 µM; in the test with M14 melanoma, 5.47 µM. In addition, the GI50 in the test on CCRF-CEM leukemia was 2.2 µM; in the test with A498 renal, 28 µM; with SK-MEL-5 melanoma, 3.25 µM. Besides, the TGI came to 12.9 µM in the test on OVCAR-3 ovarian; 35.9 µM in the test with T-47D breast; 10.7 µM in the test with HCT-116 colon; 28.3 µM with DU-145 prostate; 31.3 µM in the test with SN12C renal; 22.7 µM with M14 melanoma. Also, the TGI with CCRF-CEM leukemia was over 100 µM; with A498 renal it was over 100 µM; in the test with SK-MEL-5 melanoma, 17.3 µM.
Take `COc1ccc2nc(N/N=C/C(C)=N/Nc3cc(C)c4cc(OC)ccc4n3)cc(C)c2c1`: the TGI was 53.6 µM with OVCAR-3 ovarian; over 73.6 µM in the test with T-47D breast; 28.6 µM in the test on HCT-116 colon; 34.8 µM in the test with DU-145 prostate; 51.4 µM in the test with SN12C renal; 80.2 µM in the test with M14 melanoma. The TGI in the test with CCRF-CEM leukemia was 5.45 µM; in the test on A498 renal, over 80.9 µM; with SK-MEL-5 melanoma it was 72.8 µM.
As to `CC1CNc2ccccc2N=C1NN` (configuration not stated), the TGI in the test on OVCAR-3 ovarian, in the test with T-47D breast, with HCT-116 colon, with DU-145 prostate, in the test with SN12C renal and in the test with M14 melanoma was over 100 µM each time. The TGI with CCRF-CEM leukemia, in the test on A498 renal and with SK-MEL-5 melanoma was over 100 µM each time.
Take `Cc1cccc2nc3c(C(=O)NCCN(C)C)cccc3cc12`: the TGI is 3.57 µM in the test with DMS 273 small cell lung; 7.5 µM in the test on OVCAR-3 ovarian; 4.98 µM with KM20L2 colon; 6.21 µM in the test on HCT-116 colon; 5.98 µM with SN12C renal; 5.41 µM with CCRF-CEM leukemia. The values for the TGI in the test on A498 renal and in the test on SK-MEL-5 melanoma were 3.48 µM and 3.06 µM, respectively.
`NC(=O)c1cc2cc(Cl)cc(Cl)c2oc1=Nc1ccc(F)cc1`: the TGI in the test on OVCAR-3 ovarian came to 52.9 µM; in the test on T-47D breast, 73.5 µM; in the test on HCT-116 colon, 38.3 µM; in the test with DU-145 prostate, 41.8 µM; in the test with SN12C renal, 38 µM; with M14 melanoma, 45.5 µM. Besides, the TGI with CCRF-CEM leukemia was over 100 µM; in the test with A498 renal, 35.3 µM; in the test on SK-MEL-5 melanoma it was 31.7 µM.
Take `COC(=O)C1=CC2CCCC1(O)C(C(C)=O)C2` (configuration not stated): the TGI in the test with OVCAR-3 ovarian, with T-47D breast, with HCT-116 colon, with DU-145 prostate, with SN12C renal and with M14 melanoma was over 100 µM in each case. For the same compound, the figures for the TGI in the test with CCRF-CEM leukemia, in the test with A498 renal and with SK-MEL-5 melanoma were over 68.3 µM, over 100 µM and over 100 µM, respectively.
With `CNC(=O)OC(C)CN1c2ccccc2Sc2ccc(Cl)cc21` (configuration not stated), the TGI with OVCAR-3 ovarian, in the test with T-47D breast, in the test on HCT-116 colon, in the test on DU-145 prostate, in the test on SN12C renal and with M14 melanoma was over 10 µM in each case. Besides, the TGI in the test on CCRF-CEM leukemia, with A498 renal and in the test with SK-MEL-5 melanoma was over 10 µM throughout.
As to `O=C(N/N=C(/c1ccccc1)C(F)(F)F)c1ccncc1`, the TGI in the test with OVCAR-3 ovarian, in the test with T-47D breast, in the test with HCT-116 colon, in the test on DU-145 prostate, in the test with SN12C renal and with M14 melanoma was over 100 µM throughout. Also, the TGI with CCRF-CEM leukemia, in the test on A498 renal and in the test with SK-MEL-5 melanoma was over 100 µM in each case.
